Assay results: patent publication US20040110124A1, “Method of enhancing radiation resistance of normal cells” (priority 2002, published 2004)

Tests used:
Type in all cases: cell-based
MDCK epithelial cells = test: Cell survival after irradiation, MTT assay, normal epithelial cells; settings: Canis lupus familiaris, light or radiation study, irradiated at 20 Gy, 1.0 μM valinomycin for 2 hours, 58% without valinomycin, read-out: relative survival (% of control)
Procedure: (§1) FIG. 4. Effect of valinomycin on radiation response of normal epithelial cells. MDCK epithelial cells were irradiated with 0-20 Gy in the presence or absence of valinomycin. Valinomycin (0.01-1.0 μM) was added in the growth media immediately prior to irradiation, and removed at 2 hours or 3 days post irradiation. Three days after irradiation, cell survival was assessed by using the MTT assay.
(§2) Three normal cell lines (Rat-1, a fibroblast cell line; MS-1, an endothelial cell line and MDCK, a epithelial cell line) were studied. All three cell lines were cultured in Dulbecco's modified Eagle medium supplemented with 10% fetal calf serum, 100 U/ml penicillin and 100 ug/ml streptomycin (Gibco BRL, Gaithersburg, Md.) at 37° C. with 5% CO2. Cells were irradiated with a ^137Cs source at a dose rate of 300 cGy/min, and the viability of cells was measured by the MTT assay. Valinomycin was used as an agent to hyperpolarize the plasma membrane. The membrane potential was recorded with a fluorescent probe bis-oxonol, a negatively charged potential-sensitive fluorescent dye, which is distributed across the plasma membrane. Binding of this probe to intracellular components is dependent upon the membrane potential.

Rat-1 fibroblast cells = test: Cell survival after irradiation, MTT assay, normal fibroblast cells; settings: light or radiation study, Rat-1, irradiated at 20 Gy, 1.0 μM valinomycin for 2 hours, 25% without valinomycin, read-out: relative survival (% of control)
Procedure: (§3) FIG. 2. Effect of valinomycin on radiation response of normal fibroblast cells. Rat-1 fibroblast cells were irradiated with 0-20 Gy in presence or absence of valinomycin. Valinomycin (0.01-1.0 μM) was added in the growth media immediately prior to irradiation, and removed at 2 hours or 3 days post irradiation. Three days after irradiation, cell survival was assessed by using the MTT assay.
as §2

MS1 endothelial cells = test: Cell survival after irradiation, MTT assay, normal endothelial cells; settings: light or radiation study, MS-1, irradiated at 20 Gy, 1.0 μM valinomycin for 2 hours, 45% without valinomycin, read-out: relative survival (% of control)
Procedure: as §1, with “3.” for “4.”, “endothelial” for “epithelial”, “MS1 endothelial” for “MDCK epithelial”
as §2

[1] = system: Rat-1, MS-1 and MDCK cells; test: Cell survival after irradiation, MTT assay, all three normal cell lines together; settings: valinomycin 0.01 μM to 1.0 μM
Procedure: as §3
as §1, with “3.” for “4.”, “endothelial” for “epithelial”, “MS1 endothelial” for “MDCK epithelial”
FIG. 4. Effect of valinomycin on radiation response of normal epithelial cells. […] Three days after irradiation, cell survival was assessed by using the MTT assay.
Three normal cell lines (Rat-1, a fibroblast cell line; MS-1, an endothelial cell line and MDCK, a epithelial cell line) were studied. […] Cells were irradiated with a ^137Cs source at a dose rate of 300 cGy/min, and the viability of cells was measured by the MTT assay. […] The membrane potential was recorded with a fluorescent probe bis-oxonol, a negatively charged potential-sensitive fluorescent dye, which is distributed across the plasma membrane. […]

Rat-1 cells = test: Membrane potential recorded with fluorescent probe bis-oxonol
Procedure: FIG. 1. Fluorescence measurement of Rat-1 cells before (Line A) and after (Line B) valinomycin (1.0 μM) treatment.
as §2

## CC(C)[C@@H]1NC(=O)[C@H](C)OC(=O)[C@@H](C(C)C)NC(=O)[C@@H](C(C)C)OC(=O)[C@H](C(C)C)NC(=O)[C@H](C)OC(=O)[C@@H](C(C)C)NC(=O)[C@@H](C(C)C)OC(=O)[C@H](C(C)C)NC(=O)[C@H](C)OC(=O)[C@@H](C(C)C)NC(=O)[C@@H](C(C)C)OC1=O [valinomycin]
MDCK epithelial cells
  activity at 1 µM: 82%
Rat-1 fibroblast cells
  activity at 1 µM: 67%
MS1 endothelial cells
  activity at 1 µM: 92%
[1]
  radiation protective effect across concentrations: very similar radiation protective effects
Rat-1 cells; valinomycin 1.0 μM, incubation 2 hours, Rat-1 cells (FIG. 1)
  fluorescent reading, plasma membrane polarization: decrease in fluorescent reading
Rat-1 cells; valinomycin 0.01-1 nM for 2 hours or 3 days
  decrease of intracellular fluorescence (bis-oxonol): 55-60%
Rat-1 cells; valinomycin 0.01-1 nM for 2 hours or 3 days, 0.44-0.5 prior to treatment
  intracellular fluorescence after valinomycin treatment: 0.18-0.20
